Data from patent US20230165836A1, “ALPHA-2 ADRENERGIC RECEPTOR AGONISTS FOR THE TREATMENT OF CANCER” (UNIVERSITÉ CATHOLIQUE DE LOUVAIN, priority 2020, published 2023).
“Also recorded” adds a separate entry of the source.

Key:
B16F1 melanoma = B16F1 melanoma in immune deficient mice; format: in vivo; settings: B16F1 in immune deficient NSG mice; 5 mg/kg, i.p.
Description: FIGS. 10A-B is a set of curves showing the tumor growth of B16F1 melanoma in C57BL/6J (FIG. 10A) or immunodeficient NSG mice (FIG. 10B) treated with PBS (Control, curve 1) or clonidine (5 mg/kg, i.p., curve 2).
FIGS. 11A-B is a set of curves showing the tumor growth of B16F1 melanoma in C57BL/6J (FIG. 11A) or NSG mice (FIG. 11B) treated with PBS (Control, curve 1) or guanfacine (5 mg/kg, i.p., curve 2).

[1] = system: SKOV3 human ovarian tumor cells; settings: SKOV3 in NSG mice
Description: SKOV3 human ovarian tumor cells were injected subcutaneously in immune deficient NSG mice. When tumors were palpable, tumor-bearing mice received adoptive cell transfer of 3×10^6 of allogeneic human PBMC (i.v.) and were injected daily with clonidine (5 mg/kg, i.p.) or vehicle (PBS, i.p.) until sacrifice.

hepatocellular carcinoma = experiment: Tumor model: hepatocellular carcinoma; format: in vivo, mice; settings: hepatocellular carcinoma (FIG. 22B, 23B)
Description: (§1) FIGS. 23A-H is a set of curves showing the tumor growth of mice treated with PBS (Control, circles) or guanabenz (GBZ, triangles) in different tumor models: such as mammary gland tumor (FIG. 23A), hepatocellular carcinoma (FIG. 23B), T cell lymphoma (FIG. 23C), lung cancer (FIG. 23D), myeloma (FIG. 23E), mammary adenocarcinoma (FIG. 23F), renal cancer (FIG. 23G) and fibrosarcoma (FIG. 23H).

TiRP melanoma = TiRP melanoma model, monotherapy; format: in vivo; settings: TiRP+/+ mice; 5 mg/kg, i.p. daily from tumor size around 250 mm^3
Description: FIGS. 14A-B is a set of curves showing the tumor growth (melanoma) in TiRP+/+ mice that have received daily injections of guanfacine (5 mg/kg, i.p. triangles; FIG. 14A), clonidine (5 mg/kg, i.p., circles; FIG. 14B), or control (PBS, i.p., squares), when the tumor size was around 250 mm^3 until sacrifice.
TiRP mice have been created by crossing Ink4a/Are^flox/flox mice with mice carrying a transgenic construct controlled by the tyrosinase promoter and driving the expression of H-Ras ^12V and Trapl a which encodes a MAGE-type tumor antigen P1A; the promoter is separated from the coding region by a stop cassette made of a floxed self-deleting CreER (Huijbers et al., 2006, Cancer Res 66, 3278-3286). Those mice were backcrossed to a B10.D2 background and bred to homozygosity. TCRP1A mice heterozygous for the H-2Ld/P1A35-43-specific TCR transgene were kept on the B10.D2;Rag1^−/− background (Shanker et al., 2004, J Immunol 172, 5069-5077). […]
(§2) A fresh solution of 40H-Tamoxifen was prepared by dissolving 40H-Tamoxifen (Imaginechem®) in 100% ethanol and mineral oil (ratio 1:9) followed by 30 min sonication, and injected subcutaneously (2 mg/200 uL per mouse) in the neck area of gender-matched 7 weeks old TiRP mice. Tumor appearance was monitored daily and tumors were measured three times/week. Tumor volume (in mm^3) was calculated by the following formula: Volume=width^2×length/2.

mammary gland tumor = experiment: Tumor model: mammary gland tumor; format: in vivo, mice; settings: mammary gland tumor (FIG. 22A, 23A)
Description: as §1

renal cancer = experiment: Tumor model: renal cancer; format: in vivo, mice; settings: renal cancer (FIG. 22G, 23G)
Description: as §1

[2] = system: immune-resistant autochthonous melanoma tumors (TiRP); experiment: TiRP melanoma with adoptive cell transfer (ACT) of P1A-specific CD8+T cells; format: in vivo, TiRP mice; settings: 5 mg/kg
Description: TiRP mice have been created by crossing Ink4a/Are^flox/flox mice with mice carrying a transgenic construct controlled by the tyrosinase promoter and driving the expression of H-Ras ^12V and Trapl a which encodes a MAGE-type tumor antigen P1A; the promoter is separated from the coding region by a stop cassette made of a floxed self-deleting CreER (Huijbers et al., 2006, Cancer Res 66, 3278-3286). Those mice were backcrossed to a B10.D2 background and bred to homozygosity. TCRP1A mice heterozygous for the H-2Ld/P1A35-43-specific TCR transgene were kept on the B10.D2;Rag1^−/− background (Shanker et al., 2004, J Immunol 172, 5069-5077). BALB/c mice were used in tumor transplantation experiments. TiRP-derived T429.11 transplanted melanoma model: T429.11 clone was derived from an induced Amela TiRP tumor referred to as T429. It was cloned from the T429 induced melanoma primary tumor line. Two million of T429.11 tumor cells were injected subcutaneously into recipient mice for tumor establishment (Zhu et al., 2017, Nat Commun. 10; 8(1):1404). Adra2a tm1Bkk mice (Strain Name: B6.129-Adra2a tm1Bkk /J, # 004367) were obtained from Jackson Laboratory (Bar Harbor, Me., USA).
as §2
For the adoptive cell transfer (ACT), P1A-specific (TCRP1A) CD8+T cells were isolated from spleens and lymph nodes of TCRP1A mice as described hereinabove, and stimulated in vitro by co-culture with irradiated (10,000 rads) L1210.P1A.B7-1 cells (Gajewski et al., 1995, J Immunol 154, 5637-5648) at 1:2 ratio (0.5×10^5 CD8+T cells and 10^5 L1210.P1A.B7-1 cells per well in 48-well plates) in IMDM (GIBCO®) containing 10% fetal bovine serum supplemented with L-arginine (0.55 mM, Merck®), L-asparagine (0.24 mM, Merck®), glutamine (1.5 mM, Merck®), beta-mercaptoethanol (50 μM, Sigma Aldrich®), 50 U mL^−1 penicillin and […] mL^−1 streptomycin (Life Technologies®). Four days later, TCRP1A CD8+T cells were purified on a Lymphoprep gradient (StemCell®) and 10^7 living cells were injected intravenously in 200 μL PBS in TiRP-tumor bearing mice on the day of randomization.
TiRP-tumor bearing mice received adoptive cell transfer (ACT) of 10^7 P1A-specific activated CD8+T cells and daily injections of vehicle control, clonidine (5 mg/kg, i.p.), or clonidine (5 mg/kg, i.p.) combined with phentolamine (5 mg/kg, i.p.), when the tumor size was around 500 mm^3, until the day of sacrifice. Tumor size was monitored every 2 days. Mice were sacrificed when the tumor in control group reached around 2,000 mm^3.
TiRP-tumor bearing mice received adoptive cell transfer (ACT) of 10^7 of P1A-specific activated CD8+T cells. Daily injections of 5 mg/kg i.p. of romifidine or clonidine were thus administered from the day of the ACT, when the tumor size was around 500 mm^3, until the day of sacrifice. As shown on FIGS. 5A-B, following romifidine or clonidine administration, tumor infiltration of CD8+T cells was increased. […]

Clc1cccc(Cl)c1N=C1NCCN1 [clonidine]
tumor growth (B16F1 melanoma): No tumor inhibition was found | anti-tumor efficacy of human PBMC ([1]; 3×10^6 PBMC i.v., 5 mg/kg i.p. daily): strongly increased the anti-tumor efficacy of human PBMC | expression of CD44 on tumor-infiltrated CD8+T cells ([1]; PBMC, 5 mg/kg i.p.): increased expression of CD44 | infiltration of CD4+ human T cells into tumors ([1]; PBMC, 5 mg/kg i.p.): increased | infiltration of CD8+ human T cells into tumors ([1]; PBMC, 5 mg/kg i.p.): increased | tumor growth, compared to ACT alone ([1]; with ACT, 5 mg/kg i.p. daily): significantly decreased | tumor weight on the day of sacrifice, compared to ACT alone ([1]; with ACT, 5 mg/kg i.p. daily): significantly decreased | tumor growth (hepatocellular carcinoma): strong tumor inhibition | tumor volume, monotherapy (TiRP melanoma): efficient in decreasing the tumor volume | tumor growth (mammary gland tumor): strong tumor inhibition | tumor growth (renal cancer): strong tumor inhibition | tumor infiltration of CD8+T cells (%CD8+T cells among total CD45+T cells) ([2]; TiRP mice with ACT, 5 mg/kg i.p. daily from day of ACT, tumor size around 500 mm^3): increase of tumor infiltration of CD8+T cells; also recorded: increased | tumor growth, combined with ACT ([2]; TiRP mice, ACT of 10^7 P1A-specific CD8+T cells, 5 mg/kg i.p. daily): strongly sensitized immune-resistant autochthonous melanoma tumors (TiRP) to adoptive cell transfer (ACT); also recorded: efficiently control the growth; also recorded: inhibited the tumor growth
